Measurements published in the supplement of paper PMC10307832.

Tests used:
Assay in all cases: relative viability (nuclei count vs DMSO), 5 days (fraction); higher = more cells survive
NCI-H23 = test system: NCI-H23
In short: (§1)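 For relative viability, nuclei counts in treated wells were divided by those in vehicle wells. Lung cancer cell lines had been pin-tool dosed in 1536-well plates the day after seeding and cultured for 5 days, then fixed and stained in one step (final 0.05% Triton X-100, 1% formaldehyde, 1 ug/ml Hoechst) and imaged at 4×. Doses were one drug alone or a fixed anchor-drug dose plus five library-drug doses (not always all listed) in √10 steps, and values are duplicate-plate medians.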

A-427 = test system: A-427
In short: as §1

NCI-H1563 = test system: NCI-H1563
In short: as §1

NCI-H1755 = test system: NCI-H1755
In short: as §1

NCI-H441 = test system: NCI-H441
In short: as §1

SK-MES-1 = test system: SK-MES-1
In short: as §1

NCI-H596 = test system: NCI-H596
In short: as §1

NCI-H520 = test system: NCI-H520
In short: as §1

NCI-H1666 = test system: NCI-H1666
In short: as §1

ChaGo-K-1 = test system: ChaGo-K-1
In short: as §1

LOU-NH91 = test system: LOU-NH91
In short: as §1

COR-L 105 = test system: COR-L 105
In short: as §1

NCI-H1734 = test system: NCI-H1734
In short: as §1

SW 900 = test system: SW 900
In short: as §1

NCI-H2170 = test system: NCI-H2170
In short: as §1

NCI-H1975 = test system: NCI-H1975
In short: as §1

H3255 = test system: H3255
In short: as §1

EMC-BAC-2 = test system: EMC-BAC-2
In short: as §1

LK-2 = test system: LK-2
In short: as §1

HCC-366 = test system: HCC-366
In short: as §1

PC-3 [JPC-3] = test system: PC-3 [JPC-3]
In short: as §1

EKVX = test system: EKVX
In short: as §1

O=c1cc(N2CCOCC2)oc2c(-c3cccc4c3sc3ccccc34)cccc12 + Cc1nc(Nc2ncc(C(=O)Nc3c(C)cccc3Cl)s2)cc(N2CCN(CCO)CC2)n1 [Dasatinib] (partner 0.075 µM)
relative viability (NCI-H23; first compound 0.01 µM): 0.828
relative viability (NCI-H23; first compound 0.03162 µM): 0.911
relative viability (NCI-H23; first compound 0.3162 µM): 0.815
relative viability (NCI-H23; first compound 1 µM): 0.857
relative viability (A-427; first compound 0.01 µM): 0.728
relative viability (A-427; first compound 0.03162 µM): 0.766
relative viability (A-427; first compound 0.1 µM): 0.677
relative viability (A-427; first compound 0.3162 µM): 0.636
relative viability (A-427; first compound 1 µM): 0.792
relative viability (NCI-H1563; first compound 0.01 µM): 0.445
relative viability (NCI-H1563; first compound 0.03162 µM): 0.451
relative viability (NCI-H1563; first compound 0.1 µM): 0.445
relative viability (NCI-H1563; first compound 0.3162 µM): 0.51
relative viability (NCI-H1563; first compound 1 µM): 0.412
relative viability (NCI-H1755; first compound 0.01 µM): 0.511
relative viability (NCI-H1755; first compound 0.03162 µM): 0.412
relative viability (NCI-H1755; first compound 0.1 µM): 0.471
relative viability (NCI-H1755; first compound 0.3162 µM): 0.416
relative viability (NCI-H1755; first compound 1 µM): 0.415
relative viability (NCI-H441; first compound 0.01 µM): 0.623
relative viability (NCI-H441; first compound 0.03162 µM): 0.676
relative viability (NCI-H441; first compound 0.1 µM): 0.594
relative viability (NCI-H441; first compound 0.3162 µM): 0.492
relative viability (NCI-H441; first compound 1 µM): 0.574
relative viability (SK-MES-1; first compound 0.01 µM): 0.413
relative viability (SK-MES-1; first compound 0.03162 µM): 0.363
relative viability (SK-MES-1; first compound 0.1 µM): 0.349
relative viability (SK-MES-1; first compound 0.3162 µM): 0.447
relative viability (SK-MES-1; first compound 1 µM): 0.337
relative viability (NCI-H596; first compound 0.01 µM): 0.711
relative viability (NCI-H596; first compound 0.03162 µM): 0.574
relative viability (NCI-H596; first compound 0.1 µM): 0.561
relative viability (NCI-H596; first compound 0.3162 µM): 0.558
relative viability (NCI-H596; first compound 1 µM): 0.648
relative viability (NCI-H520; first compound 0.01 µM): 0.184
relative viability (NCI-H520; first compound 0.03162 µM): 0.201
relative viability (NCI-H520; first compound 0.1 µM): 0.231
relative viability (NCI-H520; first compound 0.3162 µM): 0.168
relative viability (NCI-H520; first compound 1 µM): 0.203
relative viability (NCI-H1666; first compound 0.01 µM): 0.775
relative viability (NCI-H1666; first compound 0.03162 µM): 0.787
relative viability (NCI-H1666; first compound 0.1 µM): 0.755
relative viability (NCI-H1666; first compound 0.3162 µM): 0.809
relative viability (NCI-H1666; first compound 1 µM): 0.754
relative viability (ChaGo-K-1; first compound 0.01 µM): 0.402
relative viability (ChaGo-K-1; first compound 0.03162 µM): 0.641
relative viability (ChaGo-K-1; first compound 0.1 µM): 0.517
relative viability (ChaGo-K-1; first compound 0.3162 µM): 0.609
relative viability (ChaGo-K-1; first compound 1 µM): 0.73
relative viability (LOU-NH91; first compound 0.01 µM): 0.546
relative viability (LOU-NH91; first compound 0.03162 µM): 0.55
relative viability (LOU-NH91; first compound 0.1 µM): 0.537
relative viability (LOU-NH91; first compound 0.3162 µM): 0.584
relative viability (LOU-NH91; first compound 1 µM): 0.563
relative viability (COR-L 105; first compound 0.01 µM): 0.316
relative viability (COR-L 105; first compound 0.03162 µM): 0.327
relative viability (COR-L 105; first compound 0.1 µM): 0.314
relative viability (COR-L 105; first compound 0.3162 µM): 0.372
relative viability (COR-L 105; first compound 1 µM): 0.304
relative viability (NCI-H1734; first compound 0.01 µM): 0.498
relative viability (NCI-H1734; first compound 0.03162 µM): 0.517
relative viability (NCI-H1734; first compound 0.1 µM): 0.49
relative viability (NCI-H1734; first compound 0.3162 µM): 0.439
relative viability (NCI-H1734; first compound 1 µM): 0.415
relative viability (SW 900; first compound 0.01 µM): 0.476
relative viability (SW 900; first compound 0.03162 µM): 0.648
relative viability (SW 900; first compound 0.1 µM): 0.66
relative viability (SW 900; first compound 0.3162 µM): 0.539
relative viability (SW 900; first compound 1 µM): 0.507
relative viability (NCI-H2170; first compound 0.01 µM): 0.574
relative viability (NCI-H2170; first compound 0.03162 µM): 0.569
relative viability (NCI-H2170; first compound 0.1 µM): 0.728
relative viability (NCI-H2170; first compound 0.3162 µM): 0.557
relative viability (NCI-H2170; first compound 1 µM): 0.621
relative viability (NCI-H1975; first compound 0.01 µM): 0.333
relative viability (NCI-H1975; first compound 0.03162 µM): 0.349
relative viability (NCI-H1975; first compound 0.1 µM): 0.333
relative viability (NCI-H1975; first compound 0.3162 µM): 0.378
relative viability (NCI-H1975; first compound 1 µM): 0.404
relative viability (H3255; first compound 0.01 µM): 0.348
relative viability (H3255; first compound 0.03162 µM): 0.338
relative viability (H3255; first compound 0.1 µM): 0.337
relative viability (H3255; first compound 0.3162 µM): 0.379
relative viability (H3255; first compound 1 µM): 0.345
relative viability (EMC-BAC-2; first compound 0.01 µM): 0.366
relative viability (EMC-BAC-2; first compound 0.03162 µM): 0.32
relative viability (EMC-BAC-2; first compound 0.1 µM): 0.342
relative viability (EMC-BAC-2; first compound 0.3162 µM): 0.371
relative viability (EMC-BAC-2; first compound 1 µM): 0.344
relative viability (LK-2; first compound 0.01 µM): 0.329
relative viability (LK-2; first compound 0.03162 µM): 0.289
relative viability (LK-2; first compound 0.1 µM): 0.338
relative viability (LK-2; first compound 0.3162 µM): 0.339
relative viability (LK-2; first compound 1 µM): 0.279
relative viability (HCC-366; first compound 0.01 µM): 0.672
relative viability (HCC-366; first compound 0.03162 µM): 0.69
relative viability (HCC-366; first compound 0.1 µM): 0.725
relative viability (HCC-366; first compound 0.3162 µM): 0.601
relative viability (HCC-366; first compound 1 µM): 0.618
relative viability (PC-3 [JPC-3]; first compound 0.01 µM): 0.97
relative viability (PC-3 [JPC-3]; first compound 0.03162 µM): 0.974
relative viability (PC-3 [JPC-3]; first compound 0.1 µM): 1.02
relative viability (PC-3 [JPC-3]; first compound 0.3162 µM): 0.935
relative viability (PC-3 [JPC-3]; first compound 1 µM): 0.993
relative viability (EKVX; first compound 0.01 µM): 0.528
relative viability (EKVX; first compound 0.03162 µM): 0.469
relative viability (EKVX; first compound 0.1 µM): 0.672
relative viability (EKVX; first compound 0.3162 µM): 0.607
relative viability (EKVX; first compound 1 µM): 0.605
